# Laboratory results: US8367716B2 (priority 2003, dated 2013)
# Key:
# S. aureus [1] = assay: Tube agglutination assay and light microscopy (cell-to-cell aggregation); assay type: cell-based, Staphylococcus aureus
# Method: Tube agglutination assay and light microscopy. Colonies from a 18 h blood agar plate were inoculated into 1 ml PBS to make a 0.5 McFarland standard containing ˜5×10^8 cfu/ml (confirmed by plate count). A 5 μl aliquot from the 0.5 McFarland standard was then inoculated into 5 ml polystyrene tubes containing 1 ml TSB representing ˜10^5 cfu/ml (confirmed by plate count). These tubes were inoculated either with 50 μl c-di-GMP to give a 200 μM c-di-GMP final concentration representing a “treated” sample or inoculated with 50 μl 0.9% NaCl as a control and representing an “untreated” control. Cultures were incubated at 37° C. for 24 h statically. Following incubation, these cultures were examined macroscopically and microscopically (Zeiss Axioskop) for the presence or absence of visible cell-to-cell clumping.
# [2] = 0.2 N NaOH, ~pH 13.5, 37° C. for 24 h; Ross et al.; cited from earlier work
# [3] = system: S. aureus strain DK825 adherence to HeLa cells; assay: Epithelial cell assay (bacterial adherence to HeLa cells); assay type: cell-based, Staphylococcus aureus
# Method: Epithelial cell assay. HeLa cells (ATCC CCL2) were grown to confluence in complete medium (10% FBS from Sigma, DMEM/F12 with glutamine from Invitrogen and 50 μg/ml gentamicin) and were trypsinized with 0.1% trypsin-EDTA. Approximately 1×10^5 HeLa cells were seeded in each well of a chamber slide and then the HeLa cells were incubated at 37° C. in 5% CO2 for at least 18 h until 85% confluent. Prior to infection, the HeLa cells were washed twice with warm PBS and then 500 μl warm FMEM/F12 was added to each well. For the bacterial adherence assay, an overnight culture of S. aureus strain DK825 was grown overnight in 5 ml LB broth at 37° C. with shaking at 250 rpm. Following incubation, 1 ml of the overnight culture was pelleted, washed twice with PBS and resuspended in 1 ml of PBS. The HeLa cells in the wells were washed twice with 500 μl of HBSS and aliquots of DMEM with the desired final concentration of c-di-GMP (0-, 2-, 20- and 200 μM) were prepared. DMEM (500 μl) containing the respective concentrations of c-di-GMP was inoculated into the wells containing HeLa cells followed by the addition of 10 μl (˜10^7 cells) S. aureus (MOI HeLa:bacteria˜1:100). The epithelial cell assay was incubated in CO2 for 45 min. Following incubation the cells were washed twice with 500 μl PBS and fixed with 2% formalin for 20 min. The cells were again washed twice with PBS and stained with Giemsa stain for 10 seconds, washed three times with PBS, then the cells covered with 40 μl of 90% glycerol in water and a cover slip was placed. The slides were observed under a light microscope (Zeiss Axioskop) at 630×mag. The level of bacterial adherence to 100 individual HeLa cells was calculated for each duplicate treatment and the average determined.
# S. aureus [4] = assay: Biofilm formation on polystyrene microtitre plates (crystal violet, O.D.570); assay type: cell-based, Staphylococcus aureus
# Method: Effect of c-di-GMP on S. aureus biofilm formation. S. aureus strains were subcultured from glycerol stocks onto blood agar plates and incubated at 37° C. for 18 h. A single colony was inoculated into 5 ml TSB broth with a sterilized loop and incubated at 37° C. for 18 h with shaking at 250 rpm and until the O.D.660 reached 3.0 as measured spectrophotometrically using a spectrophotometer (SpectraMAX 250, Molecular Devices). Following incubation, the culture was diluted 1:250 with fresh TSB and a 200 μl of the diluted culture was transferred into wells of a flat-bottom polystyrene microtitre plate (Evergreen Scientific). […] In these biofilm experiments, similar volumes of 0.9% NaCl was added to a set of different wells representing the “untreated” control samples. The microtitre plates were then incubated statically at 37° C. for 24 h or 48 h. Following incubation, the supernatant was carefully discarded and the wells washed twice with 260 μl PBS. The plate was then kept for drying on a paper towel for 30 min after which 260 μl 0.1% crystal violet was added to each well and the plates incubated at room temperature for 30 min. The crystal violet was discarded and plate washed gently with water, the wells allowed to dry for 30 min then 260 μl DMSO was added to each well and gently agitated for 1 h and the O.D.570 measured by using a spectrophotometer (SpectraMAX 250, Molecular Devices). The results of these biofilm assays were based on data obtained from at least three independent colonies tested in duplicate.
smiles,measurement,setting,value
"Nc1nc2c(ncn2C2OC3COP(=O)(O)OC4C(COP(=O)(O)OC3C2O)OC(n2cnc3c(=O)[nH]c(N)nc32)C4O)c(=O)[nH]1 (stereo not shown) [c-di-GMP, 3′,5′-cyclic diguanylic acid]","cell-to-cell interactions and clumping (Gram stain, light microscopy)","S. aureus [1]; DK825, 200 μM",dramatically less cell-to-cell interactions and clumping
same,visible cell aggregation (macroscopic),"S. aureus [1]; DK825, 200 μM, 24 h static",no obvious visible cell aggregation or pellet
same,visible cell aggregation (macroscopic),S. aureus [1]; bap mutant M556,inhibits cell aggregation
same,"cell-to-cell interactions and clumping (Gram stain, light microscopy)","S. aureus [1]; bovine mastitis strains V329, V299, V315",less intercellular interactions and clumping
same,stability in relatively strong alkali (cellulose activating activity),[2],labile
same,effect on adherence to HeLa cells,[3]; 2 μM,did not show any obvious effect
same,effect on adherence to HeLa cells,[3]; 20 μM,did not show any obvious effect
same,reduction in adherence,[3]; 200 μM,~66%
same,average adherence,"[3]; 200 μM, untreated 12 bacteria/cell",4 bacteria/cell
same,reduction of biofilm formation,"S. aureus [4]; DK825, 20 μM, 24 h",~50%
same,reduction of biofilm formation,"S. aureus [4]; DK825, 200 μM, 24 h",~65%
same,reduction of biofilm formation,"S. aureus [4]; DK825, 400 μM, 24 h",~85%
same,reduction of biofilm formation,"S. aureus [4]; bovine strains V329, M556, V299, V315",50-70%
same,reduction of cell-to-surface interactions and biofilm formation,S. aureus [4]; human and bovine isolates vs untreated controls,> 50%
same,"expression of enterotoxin 1, Down-regulated",S. aureus strain DK825,0.35 fold
same,"expression of enterotoxin A, Down-regulated",S. aureus strain DK825,0.54 fold
same,"expression of toxic shock syndrome toxin, Down-regulated",S. aureus strain DK825,0.45 fold
same,"expression of PBP-2, Up-regulated",S. aureus strain DK825; 200 μM vs untreated control,2.0 fold
same,"expression of PBP-4, Up-regulated",S. aureus strain DK825; 200 μM vs untreated control,1.7 fold
same,"expression of agrA (quorum sensing), Up-regulated",S. aureus strain DK825; 200 μM vs untreated control,5.4 fold
same,"expression of agrB (quorum sensing), Up-regulated",S. aureus strain DK825; 200 μM vs untreated control,5.8 fold
same,"expression of agrC (quorum sensing), Up-regulated",S. aureus strain DK825; 200 μM vs untreated control,2.0 fold
same,"expression of agrD (quorum sensing), Up-regulated",S. aureus strain DK825; 200 μM vs untreated control,2.2 fold
same,"expression of clfA (clumping factor), Down-regulated",S. aureus strain DK825; 200 μM vs untreated control,0.54 fold
same,"expression of clfB (clumping factor), Down-regulated",S. aureus strain DK825; 200 μM vs untreated control,0.43 fold
same,"expression of collagen adhesin, Down-regulated",S. aureus strain DK825; 200 μM vs untreated control,0.55 fold
same,"expression of exfoliative toxin, Down-regulated",S. aureus strain DK825; 200 μM vs untreated control,0.52 fold
same,"expression of fbnA (fibrinogen binding), Down-regulated",S. aureus strain DK825; 200 μM vs untreated control,0.66 fold
same,"expression of fnbB (fibronectin binding), Down-regulated",S. aureus strain DK825; 200 μM vs untreated control,0.47 fold
same,"expression of icaR (intercellular adhesin), Down-regulated",S. aureus strain DK825; 200 μM vs untreated control,0.62 fold
same,"expression of rsbW (anti-sigmaB), Up-regulated",S. aureus strain DK825; 200 μM vs untreated control,4.5 fold
same,"expression of saeR (response regulator), Up-regulated",S. aureus strain DK825; 200 μM vs untreated control,2.5 fold
same,"expression of saeS (histidine kinase), Up-regulated",S. aureus strain DK825; 200 μM vs untreated control,1.5 fold
same,"expression of vacuolating cytotoxin, Down-regulated",S. aureus strain DK825; 200 μM vs untreated control,0.56 fold
